Test results as given in US20190038667A1, “APPLICATION OF FULLERENE/METAL-FULLERENE FOR PREPARING PHARMACEUTICAL PRODUCT” (BEIJING FU NA KANG BIOTECHNOLOGY CO., LTD., priority 2016, published 2019).
Like-named read-outs stand apart in the source and are kept apart here.

Assays:
ICR mice [1] = experiment: Effects of Olive-C60 on relevant enzyme activities in the second course (serum); format: in vivo; conditions: 18th day, Olive-C60 intragastrically with CTX, or CTX alone, versus blank control group
Experimental: (§1) Animal models: ICR mice aged 4-5 weeks were selected and assigned randomly into 5 groups with 6 mice per group.
(§2) The second course started 20 days after the day when the first course was initiated and mice were basically recovered. In other words, the 21st day of the first course was marked as the first day of the second course. Thereafter, intraperitoneal injection of CTX was conducted once a day for 5 consecutive days; and Olive-C60 or olive was administered intragastrically or intraperitoneally. 5 days later, no drug was given; and only observation or sampling was conducted.
Effects of Olive-C60 on relevant enzyme activities in the second course on an intravital level: On the 18th day of the second course of the experiment, whole blood was taken from orbits, serums were obtained by centrifugation, and different relevant enzyme activities were tested.

ICR mice [2] = experiment: Effects of Olive-C60 on blood biochemical indexes in the second course (serum); format: in vivo; conditions: 18th day, versus blank control group
Experimental: as §1, §2
Effects of Olive-C60 on blood biochemical indexes in the second course on an intravital level: On the 18th day of the second course of the experiment, whole blood was taken from orbits, serums were obtained by centrifugation, and blood biochemical indexes were tested.

ICR mice [3] = experiment: Protection on myelosuppression caused by CTX in H22 tumor mice (blood routine examination); format: in vivo
Experimental: Blank control group: The drugs injected either intragastrically or intraperitoneally in the experimental groups were replaced with equal volumes of normal saline.
GFNC experimental group: Mice were injected with a GFNC aqueous solution (1 mM) via caudal veins at a dosage of 0.004 mmol of GFNC/kg of body weight of mice.
CTX+GFNC experimental group: Mice were injected intraperitoneally with a CTX solution at a dosage of 60 mg/kg of body weight of mice, and GFNC solution was injected intravenously at a dosage of 0.004 mmol of GFNC/kg of body weight of mice.
Injection of drugs was initiated on the 7th day after tumor inoculation, which was marked as the first day of the experiment. Intraperitoneal injection of CTX or intravenous injection of GFNC was conducted once a day for 5 consecutive days; thereafter, blood (20 μl) was taken respectively from orbits of mice on the 4th day, the 7th day, the 10th day, the 14th day and the 17th day, and was placed in a 3 ml centrifuge tube, and the blood routine examination was conducted using a blood cell automatic analyzer, wherein the main indexes related to myelosuppression are white blood cell counts (WBC), platelet counts (PLT), hemoglobin determination (HGB) and monocyte proportion (MO %).
Animal model: ICR mice aged 4-5 weeks were selected and assigned randomly into 4 groups with 6 mice per group. […]

ICR mice [4] = conditions: first course
Experimental: as §1
(§3) Blank control group: The CTX solution injected in the experimental group was replaced with equal volumes of normal saline, and normal saline of the volume equal to 100 μL was administered intragastrically or intraperitoneally to replace Olive-C60 or olive oil.
After ICR mice aged 4-5 weeks were bred in a laboratory, CTX solutions were injected on the seventh day when their conditions were stable, which was marked as the first day of the experiment. Intraperitoneal injection of CTX was conducted once a day for 5 consecutive days; meanwhile, Olive-C60 or Olive or the normal saline was administered intragastrically or intraperitoneally. 5 days later, no injection was made, and only observation or sampling was conducted.
Effects of Olive-C60 on myelosuppression in the first course on an intravital level: blood (13 μl) was taken from orbits of mice on the 4th day, the 7th day, the 10th day and the 17th day respectively, and was placed in a 3 ml centrifuge tube, and the blood routine examination was conducted using a blood cell automatic analyzer, wherein the main indexes related to myelosuppression are white blood cell counts (WBC), platelet counts (PLT), red blood cell counts (RBC) and hemoglobin determination (HGB). Meanwhile, changes in the weight of mice were monitored.

ICR mice [5] = conditions: second course
Experimental: as §1
100 μL of normal saline was administered intragastrically so as to eliminate the difference influenced by intragastric stimulation on mice.
as §3, §2
Effects of Olive-C60 on myelosuppression in the second course on an intravital level: blood (13 μl) was taken from orbits of mice on the 4th day, the 7th day, the 10th day and the 17th day of the second course respectively, and was placed in a 3 ml centrifuge tube, and the blood routine examination was conducted using a blood cell automatic analyzer, wherein the main indexes related to myelosuppression are white blood cell counts (WBC), platelet counts (PLT), red blood cell counts (RBC) and hemoglobin determination (HGB). Meanwhile, changes in the weight of mice were monitored.

ICR mice [6] = experiment: Influence of GFNC on therapeutic effects of CTX on tumors and toxic experiment
Experimental: Blank control group: The injected drugs in the experimental groups were replaced with equal volumes of normal saline.
Metallofullerene derivative (GFNC) experimental group: Mice were injected intravenously with a GFNC solution at a dosage of 0.04 mmol of Gd^3+/kg of body weight of mice.
CTX+GFNC experimental group: Mice were injected intraperitoneally with a CTX solution at a dosage of 60 mg/kg of body weight of mice, and GFNC solution was injected intravenously at a dosage of 0.04 mmol of Gd^3+/kg of body weight of mice.
Injection of drugs was initiated on the 7th day after tumor inoculation, which was marked as the first day of the experiment. Intraperitoneal injection of CTX or intravenous injection of GFNC was conducted once a day for 5 consecutive days, and weights of mice and tumor diameters were measured every two days; thereafter, on the 17th day, mice were fetched and their eye balls were removed, and blood was taken respectively from their orbits; then, the blood was placed in a 5 ml centrifuge tube where it was centrifuged for 15 minutes at a rotational speed of 3,500 rpm; after that, a resultant serum was transferred into a 200 μL centrifuge tube, and blood biochemical indexes (e.g., ALT, ALP, AST, BUN, LDH and UA) of the mice were detected in a blood biochemical instrument; after mice were sacrificed by cervical dislocation, their main tissues and organs (hearts, livers, spleens, lungs and kidneys) were taken and weighed, and were then soaked in a 4% formalin solution; thereafter, histopathological section was conducted, and then, H&E staining was conducted. The blank control group, the cyclophosphamide (CTX) experimental group and the metallofullerene experimental group (GFNC) were processed in the same way for comparison.

[7] = CTX 60 mg/kg i.p. x5 days alone
[8] = 17th day, CTX alone or CTX+GFNC

## O=P1(N(CCCl)CCCl)NCCCO1 (stereo not shown) [CTX, cyclophosphamide]
ICR mice [1]
  level of MDA: higher than that of mice in the blank control group
ICR mice [2]
  level of uric acid in the serum: far lower than that in the serum of mice in the blank control group
ICR mice [3]; CTX 60 mg/kg i.p. x5 days alone or with 0.004 mmol/kg material intravenously x5 days
  monocytes: abnormal hyperplasia
ICR mice [3]; H22 tumor mice, CTX 60 mg/kg i.p. x5 days alone (versus blank control) or with 0.004 mmol/kg material intravenously x5 days (versus CTX group)
  white blood cells, platelets and hemoglobin: varying degrees of reduction
ICR mice [4]; [7]
  white blood cells, red blood cells, platelets and hemoglobin compared with the blank control group: varying degrees of reduction
ICR mice [4]; CTX 60 mg/kg i.p. x5 days, alone or with Olive-C60 100 μL (1,500 ppm), after termination of CTX injection / later stage
  weight of mice: lower than that of the mice in any other groups
ICR mice [5]; 17th day, CTX alone or with Olive-C60
  white blood cells on the 17th day: still below their normal levels
ICR mice [5]; [7]
  white blood cells, red blood cells, platelets and hemoglobin compared with the blank control group: varying degrees of reduction
ICR mice [5]; CTX alone or with Olive-C60
  weight of mice: differs greatly from that of the mice in other groups
ICR mice [5]; CTX alone or with Olive-C60, listed as cyclophosphamide
  weight of mice: lower than that of the mice in any other groups
ICR mice [6]; [8]
  histopathological sections of main tissues and organs (H&E staining): damaged to a certain extent
  pathological sections of tumor sites: cells of tumor tissues: die in great quantity
ICR mice [6]; CTX 60 mg/kg i.p. x5 days alone or with GFNC 0.04 mmol of Gd3+/kg intravenously
  weight of mice: drops obviously in the initial stage of drug injection
